Measurements taken from PubChem BioAssay AID1963420 (Molecular Pharmacology Branch, DTP, NCI, 2024).

Tested on: 494315-158-R-J1-PDC complex spheroid growth, percent test/control
Test: Anticancer human tumor 494315-158-R-J1-PDC patient-derived soft tissue sarcoma cell line growth inhibition [Asc]
Conditions: for IC50: curve of first compound; for viability, T/C: stronger effect = lower value
Method in brief: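 Complex spheroids combining tumor cells with HUVEC endothelial cells and human MSCs, at 37 degrees C, 5% CO2; agents tested alone or combined, half-log dilutions from at or near clinical Cmax, or 10 microM if Cmax unknown.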

[1] = second compound 0.01 µM, first compound 0.00316 µM
[2] = second compound 0.01 µM, first compound 0.01 µM
[3] = second compound 0.01 µM, first compound 0.0316 µM
[4] = second compound 0.01 µM, first compound 0.1 µM
[5] = second compound 0.01 µM, first compound 0.316 µM
[6] = second compound 0.01 µM, first compound 1 µM
[7] = second compound 0.0316 µM, first compound 0.00316 µM
[8] = second compound 0.0316 µM, first compound 0.01 µM
[9] = second compound 0.0316 µM, first compound 0.0316 µM
[10] = second compound 0.0316 µM, first compound 0.1 µM
[11] = second compound 0.0316 µM, first compound 0.316 µM
[12] = second compound 0.0316 µM, first compound 1 µM
[13] = second compound 0.1 µM, first compound 0.00316 µM
[14] = second compound 0.1 µM, first compound 0.01 µM
[15] = second compound 0.1 µM, first compound 0.0316 µM
[16] = second compound 0.1 µM, first compound 0.1 µM
[17] = second compound 0.1 µM, first compound 0.316 µM
[18] = second compound 0.1 µM, first compound 1 µM
[19] = second compound 0.316 µM, first compound 0.00316 µM
[20] = second compound 0.316 µM, first compound 0.01 µM
[21] = second compound 0.316 µM, first compound 0.0316 µM
[22] = second compound 0.316 µM, first compound 0.1 µM
[23] = second compound 0.316 µM, first compound 0.316 µM
[24] = second compound 0.316 µM, first compound 1 µM
[25] = second compound 1 µM, first compound 0.00316 µM
[26] = second compound 1 µM, first compound 0.01 µM
[27] = second compound 1 µM, first compound 0.0316 µM
[28] = second compound 1 µM, first compound 0.1 µM
[29] = second compound 1 µM, first compound 0.316 µM
[30] = second compound 1 µM, first compound 1 µM
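Note: compound exposure lasted seven days after spheroids formed for three days.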

CCN1CCN(Cc2ccc(Nc3ncc(F)c(-c4cc(F)c5nc(C)n(C(C)C)c5c4)n3)nc2)CC1 + CNC(C)C(=O)NC1CN(S(=O)(=O)c2cccc(S(=O)(=O)N3CCC4CCC(C(=O)NC(c5ccccc5)c5ccccc5)N4C(=O)C(NC(=O)C(C)NC)C3)c2)CCC2CCC(C(=O)NC(c3ccccc3)c3ccccc3)N2C1=O
IC50 (second compound 0.01 µM): > 1000 nM | IC50 (second compound 0.0316 µM): > 1000 nM | IC50 (second compound 0.1 µM): > 1000 nM | IC50 (second compound 0.316 µM): < 3.16 nM | IC50 (second compound 1 µM): < 3.16 nM | viability, T/C [1]: 77.8% | viability, T/C [2]: 81.6% | viability, T/C [3]: 67% | viability, T/C [4]: 64.4% | viability, T/C [5]: 67.5% | viability, T/C [6]: 63.8% | viability, T/C [7]: 56.8% | viability, T/C [8]: 63.9% | viability, T/C [9]: 68.7% | viability, T/C [10]: 52.2% | viability, T/C [11]: 57.2% | viability, T/C [12]: 53.4% | viability, T/C [13]: 55.6% | viability, T/C [14]: 57.4% | viability, T/C [15]: 48.9% | viability, T/C [16]: 58.4% | viability, T/C [17]: 57.4% | viability, T/C [18]: 48.9% | viability, T/C [19]: 51.5% | viability, T/C [20]: 46.4% | viability, T/C [21]: 50.2% | viability, T/C [22]: 43.4% | viability, T/C [23]: 51.3% | viability, T/C [24]: 52.5% | viability, T/C [25]: 36.3% | viability, T/C [26]: 39.7% | viability, T/C [27]: 44.4% | viability, T/C [28]: 41.8% | viability, T/C [29]: 45.3% | viability, T/C [30]: 48.5%

O=C(c1ccc(F)c(F)c1Nc1ccc(I)cc1F)N1CC(O)([C@@H]2CCCCN2)C1 + CNC(C)C(=O)NC1CN(S(=O)(=O)c2cccc(S(=O)(=O)N3CCC4CCC(C(=O)NC(c5ccccc5)c5ccccc5)N4C(=O)C(NC(=O)C(C)NC)C3)c2)CCC2CCC(C(=O)NC(c3ccccc3)c3ccccc3)N2C1=O
IC50 (second compound 0.01 µM): > 1000 nM | IC50 (second compound 0.0316 µM): 927 nM | IC50 (second compound 0.1 µM): > 1000 nM | IC50 (second compound 0.316 µM): < 3.16 nM | IC50 (second compound 1 µM): < 3.16 nM | viability, T/C [1]: 83.5% | viability, T/C [2]: 75.5% | viability, T/C [3]: 85.8% | viability, T/C [4]: 96.7% | viability, T/C [5]: 97.3% | viability, T/C [6]: 62.9% | viability, T/C [7]: 72.8% | viability, T/C [8]: 68.3% | viability, T/C [9]: 74.3% | viability, T/C [10]: 93.1% | viability, T/C [11]: 87.8% | viability, T/C [12]: 47.9% | viability, T/C [13]: 53.2% | viability, T/C [14]: 61.4% | viability, T/C [15]: 65.8% | viability, T/C [16]: 87.5% | viability, T/C [17]: 92.7% | viability, T/C [18]: 59.9% | viability, T/C [19]: 46.7% | viability, T/C [20]: 60.3% | viability, T/C [21]: 57.2% | viability, T/C [22]: 67.5% | viability, T/C [23]: 72.2% | viability, T/C [24]: 58.3% | viability, T/C [25]: 47.9% | viability, T/C [26]: 52% | viability, T/C [27]: 67.1% | viability, T/C [28]: 66.3% | viability, T/C [29]: 76.2% | viability, T/C [30]: 46.7%
